Values quoted from earlier work in publication PMC6044787 (ACS Omega, 2017).

Test system: AChE

In the case of C[n+]1ccc2c(c1)[nH]c1ccc(Cl)cc12 [Compound 8, nostocarboline], the IC50 is listed as 5.3 µM.
